25 compounds from patent publication US10689344B2, “Biphenylamide derivative Hsp90 inhibitors” (University of Kansas, priority 2013, dated 2020) can be followed below.

The test system of assay [1] is SKBr3 (estrogen receptor negative, HER2 over-expressing breast cancer cells). The assay can be described thus: Anti-proliferation assay (MTS/PMS, 72 h), SKBr3. The format is cell-based. As to conditions: Homo sapiens. The method, then: (§1) Cells were maintained in a 1:1 mixture of Advanced DMEM/F12 (Gibco) supplemented with non-essential amino acids, L-glutamine (2 mM), streptomycin (500 μg/mL), penicillin (100 units/mL), and 10% FBS. Cells were grown to confluence in a humidified atmosphere (37° C., 5% CO2), seeded (2000/well, 100 μL) in 96-well plates, and allowed to attach overnight. Compound at varying concentrations in DMSO (1% DMSO final concentration) was added, and cells were returned to the incubator for 72 h. At 72 h, the number of viable cells was determined using an MTS/PMS cell proliferation kit (Promega) per the manufacturer's instructions. Cells incubated in 1% DMSO were used at 100% proliferation, and values were adjusted accordingly. IC50 values were calculated from separate experiments performed in triplicate using GraphPad Prism.
(§2) Anti-proliferative studies with the compounds described herein were performed against the SKBr3 (estrogen receptor negative, HER2 over-expressing breast cancer cells) and MCF-7 (estrogen receptor positive breast cancer cells) breast cancer cell lines. […] In some embodiments, in contrast to the novobiocin derivatives, which usually manifest better anti-proliferative activities against the SKBr3 cell line, the biphenyl derivatives described herein were more efficacious against the MCF-7 cell line. In general, all substitutions on the phenyl ring were determined to be beneficial, consistent with the existence of a hydrophobic pocket in this region of the Hsp90 C-terminal binding site.

Assay [2] concerns MCF-7 (estrogen receptor positive breast cancer cells). The experiment in a line: Anti-proliferation assay (MTS/PMS, 72 h), MCF-7. It counts as cell-based. Conditions: Homo sapiens. As for the experimental part:
as §1, §2

Where [3] appears, read: SK-BR-3, Table 1, ortho, meta and para biphenyl cores.
Where [4] appears, read: SK-BR-3, Table 6, para-para biphenyl core with substituted benzylamide.
[5] abbreviates: MCF7, Table 1, ortho, meta and para biphenyl cores.
Where [6] appears, read: MCF7, Table 6, para-para biphenyl core with substituted benzylamide.
[7] abbreviates: SK-BR-3, Table 3, substituted para-para biphenyl core.
Where [8] appears, read: MCF7, Table 3, substituted para-para biphenyl core.
[9] abbreviates: SK-BR-3, Table 8, para-para biphenyl core with substituted biphenylamide group.
Where [10] appears, read: MCF7, Table 8, para-para biphenyl core with substituted biphenylamide group.
Where [11] appears, read: SK-BR-3, Table 5, modified linkers in para-para biphenyl core.
[12] abbreviates: MCF7, Table 5, modified linkers in para-para biphenyl core.
[13] abbreviates: SK-BR-3, Table 2, para-meta biphenyl core with substituted benzylamide.
Where [14] appears, read: MCF7, Table 2, para-meta biphenyl core with substituted benzylamide.

With `COc1ccc(C(=O)Nc2ccc(Nc3ccc(OC4CCN(C)CC4)cc3)cc2)cc1` [drawing 159], the IC50 in assay [1] (SK-BR-3, Table 11, heteroatom linked biphenyl core) was 18200 ± 2190 nM; in assay [2] (MCF7, Table 11, heteroatom linked biphenyl core), 2830 ± 1870 nM.
Consider `COc1ccc(C(=O)Nc2ccc(-c3ccc(OC4CCN(C)CC4)cc3)cc2)cc1` [Compound 41f, 4-methoxy-N-(4′-((1-methylpiperidin-4-yl)oxy)-[1,1′-biphenyl]-4-yl)benzamide], for which the IC50 in assay [1] (setting [3]) amounted to 490 ± 10 nM; in assay [1] (setting [4]), 490 ± 10 nM; in assay [2] (setting [5]), 650 ± 40 nM; in assay [2] (setting [6]), 650 ± 40 nM.
On to `COc1cccc(-c2cc(C(=O)Nc3ccc(-c4ccc(OCCCN(C)C)cc4)cc3)ccc2OC)c1` [Compound 56c, N-(4′-(3-(dimethylamino)propoxy)-[1,1′-biphenyl]-4-yl)-3′,6-dimethoxy-[1,1′-biphenyl]-3-carboxamide], for which the 50% inhibitory concentration (IC50) in assay [1] (SK-BR-3, Table 7, para-para biphenyl core with modified ether groups) is 1020 ± 50 nM; in assay [2] (MCF7, Table 7, para-para biphenyl core with modified ether groups), 870 ± 40 nM.
With `COc1cccc(-c2cc(C(=O)Nc3ccc(-c4ccc(OC5CCN(C)CC5)cc4)cc3C)ccc2OC)c1` [Compound 29d, 3′,6-dimethoxy-N-(3-methyl-4′-((1-methylpiperidin-4-yl)oxy)-[1,1′-biphenyl]-4-yl)-[1,1′-biphenyl]-3-carboxamide], the results for the IC50 in assay [1] (setting [7]) and in assay [2] (setting [8]) were 2470 ± 390 nM and 1430 ± 350 nM, respectively.
For the compound `COc1cccc(-c2cc(C(=O)Nc3ccc(-c4ccc(OC5CCN(C)CC5)c(CCC(C)C)c4)cc3)ccc2OC)c1`, the IC50 in assay [1] (SK-BR-3, Table 10, longer alkyl chain substituted biphenyl core) is 1180 ± 40 nM; in assay [2] (MCF7, Table 10, longer alkyl chain substituted biphenyl core), 1430 ± 220 nM.
Turning to `COc1ccc(C(=O)Nc2ccc(-c3ccc(OC4CCN(C)CC4)cc3)cc2)cc1-c1ccc(O)cc1` [Compound 50b, 4′-hydroxy-6-methoxy-N-(4′-((1-methylpiperidin-4-yl)oxy)-[1,1′-biphenyl]-4-yl)-[1,1′-biphenyl]-3-carboxamide], the IC50 is 130 ± 20 nM in assay [1] (setting [9]) and 500 ± 10 nM in assay [2] (setting [10]).
For `COc1cccc(-c2cc(C(=O)Nc3ccc(-c4ccc(OC5CCN(C)CC5)cc4N)cc3)ccc2OC)c1` [Compound 38b, N-(2′-amino-4′-((1-methylpiperidin-4-yl)oxy)-[1,1′-biphenyl]-4-yl)-3′,6-dimethoxy-[1,1′-biphenyl]-3-carboxamide], the values for the IC50 in assay [1] (setting [7]) and in assay [2] (setting [8]) were 2130 ± 60 nM and 1760 ± 370 nM, respectively.
In the case of `COc1cccc(-c2cc(C(=O)Nc3ccc(-c4ccc(OC5CCN(C)CC5)nc4)cc3)ccc2OC)c1` [Compound 19a, 3′,6-dimethoxy-N-(4-(6-((1-methylpiperidin-4-yl)oxy)pyridin-3-yl)phenyl)-[1,1′-biphenyl]-3-carboxamide], the IC50 in assay [1] (SK-BR-3, Table 4, para-para heteroatom substituted biphenyl core) stood at 1670 ± 90 nM; in assay [2] (MCF7, Table 4, para-para heteroatom substituted biphenyl core), 1560 ± 190 nM.
In the case of `COc1cccc(-c2cc(C(=O)Nc3ccc(-c4ccc(OC5CCN(C)CC5)cc4)c(NC(C)=O)c3)ccc2OC)c1` [Compound 39c, N-(2-acetamido-4′-((1-methylpiperidin-4-yl)oxy)-[1,1′-biphenyl]-4-yl)-3′,6-dimethoxy-[1,1′-biphenyl]-3-carboxamide], the IC50 in assay [1] (setting [7]) was determined as 2520 ± 260 nM; in assay [2] (setting [8]), 4660 ± 490 nM.
For `COc1cccc(C(=O)Nc2ccc(-c3ccc(OC4CCN(C)CC4)cc3)cc2)c1` [Compound 41i, 3-methoxy-N-(4′-((1-methylpiperidin-4-yl)oxy)-[1,1′-biphenyl]-4-yl)benzamide], the figures for the IC50 in assay [1] (setting [4]) and in assay [2] (setting [6]) were 2870 ± 510 nM and 5310 ± 700 nM, respectively.
Consider `COc1cccc(-c2cc(NC(=O)Nc3ccc(-c4ccc(OC5CCN(C)CC5)cc4)cc3)ccc2OC)c1` [Compound 52, 1-(3′,6-dimethoxy-[1,1′-biphenyl]-3-yl)-3-(4′-((1-methylpiperidin-4-yl)oxy)-[1,1′-biphenyl]-4-yl)urea], for which the IC50 in assay [1] (setting [11]) turned out to be 910 ± 80 nM; in assay [2] (setting [12]), 1260 ± 130 nM.
Consider `COc1ccc(C(=O)Nc2ccc(-c3ccc(OC4CCN(C)CC4)cc3)cc2)cc1-c1cccc(NC(C)=O)c1` [Compound 50d, 3′-acetamido-6-methoxy-N-(4′-((1-methylpiperidin-4-yl)oxy)-[1,1′-biphenyl]-4-yl)-[1,1′-biphenyl]-3-carboxamide], for which the IC50 in assay [1] (setting [9]) is 3370 ± 740 nM; in assay [2] (setting [10]), 1430 ± 280 nM.
As for `COc1cccc(-c2cc(C(=O)Nc3ccc(-c4ccc(OC5CCN(C)CC5)c(NC(C)=O)c4)cc3)ccc2OC)c1` [Compound 39a, N-(3′-acetamido-4′-((1-methylpiperidin-4-yl)oxy)-[1,1′-biphenyl]-4-yl)-3′,6-dimethoxy-[1,1′-biphenyl]-3-carboxamide], the IC50 came out at 2660 ± 760 nM in assay [1] (setting [7]) and 1840 ± 430 nM in assay [2] (setting [8]).
With `CN1CCC(Oc2ccc(-c3ccc(NC(=O)c4ccc5ncccc5c4)cc3)cc2)CC1` [Compound 45b, N-(4′-((1-methylpiperidin-4-yl)oxy)-[1,1′-biphenyl]-4-yl)quinoline-6-carboxamide], the IC50 was determined as 1310 ± 180 nM in assay [1] (setting [4]) and 2070 ± 160 nM in assay [2] (setting [6]).
On to `CN1CCC(Oc2cccc(-c3cccc(NC(=O)C45CC6CC(CC(C6)C4)C5)c3)c2)CC1` [Compound 61b, N-(3′-((1-methylpiperidin-4-yl)oxy)-[1,1′-biphenyl]-3-yl)adamantane-1-carboxamide], for which the IC50 in assay [1] (setting [3]) stood at 2600 ± 710 nM; in assay [2] (setting [5]), 2070 ± 90 nM.
In the case of `COc1cccc(-c2cc(C(=O)Nc3ccc(-c4ccc(OC5CCN(C)CC5)cc4NC(C)=O)cc3)ccc2OC)c1` [Compound 39b, N-(2′-acetamido-4′-((1-methylpiperidin-4-yl)oxy)-[1,1′-biphenyl]-4-yl)-3′,6-dimethoxy-[1,1′-biphenyl]-3-carboxamide], the 50% inhibitory concentration (IC50) was determined as 3390 ± 660 nM in assay [1] (setting [7]) and 1360 ± 230 nM in assay [2] (setting [8]).
Regarding `COc1cccc(-c2cc(NC(=O)c3ccc(-c4ccc(OC5CCN(C)CC5)cc4)cc3)ccc2OC)c1` [Compound 60], the values for the IC50 in assay [1] (setting [11]) and in assay [2] (setting [12]) were 1640 ± 790 nM and 1220 ± 130 nM, respectively.
Turning to `CN1CCC(Oc2ccc(-c3cccc(NC(=O)c4ccccc4)c3)cc2)CC1` [Compound 6b, N-(4′-((1-methylpiperidin-4-yl)oxy)-[1,1′-biphenyl]-3-yl)benzamide], the IC50 in assay [1] (setting [13]) worked out at 18900 ± 950 nM; in assay [2] (setting [14]), 12000 ± 570 nM.
Consider `COc1ccc(-c2cc(C(=O)Nc3ccc(-c4ccc(OC5CCN(C)CC5)cc4)cc3)ccc2OC)cc1` [Compound 49c, 4′,6-dimethoxy-N-(4′-((1-methylpiperidin-4-yl)oxy)-[1,1′-biphenyl]-4-yl)-[1,1′-biphenyl]-3-carboxamide], for which the IC50 in assay [1] (setting [9]) stood at 630 ± 40 nM; in assay [2] (setting [10]), 790 ± 130 nM.
Turning to `Cc1ccc(C(=O)Nc2cccc(-c3ccc(OC4CCN(C)CC4)cc3)c2)cc1` [Compound 6c, 4-methyl-N-(4′-((1-methylpiperidin-4-yl)oxy)-[1,1′-biphenyl]-3-yl)benzamide], the results for the concentration for half-maximal inhibition (IC50) in assay [1] (setting [13]) and in assay [2] (setting [14]) were 5270 nM and 3920 ± 130 nM, respectively.
For the compound `CN1CCC(Oc2ccc(-c3ccc(NC(=O)c4ccc(C(C)(C)C)cc4)cc3)cc2)CC1` [Compound 41g, 4-(tert-butyl)-N-(4′-((1-methylpiperidin-4-yl)oxy)-[1,1′-biphenyl]-4-yl)benzamide], the IC50 in assay [1] (setting [3]) was 1260 ± 370 nM; in assay [1] (setting [4]) it was 1260 ± 370 nM; in assay [2] (setting [5]), 1080 ± 80 nM; in assay [2] (setting [6]), 1080 ± 80 nM.
`COc1cccc(-c2cc(C(=O)Nc3ccc(-c4ccc(OC5CCN(C)CC5)c(N)c4)cc3)ccc2OC)c1` [Compound 38a, N-(3′-amino-4′-((1-methylpiperidin-4-yl)oxy)-[1,1′-biphenyl]-4-yl)-3′,6-dimethoxy-[1,1′-biphenyl]-3-carboxamide]: the IC50 is 2230 ± 490 nM in assay [1] (setting [7]) and 5950 ± 1220 nM in assay [2] (setting [8]).
For the compound `CN1CCC(Oc2ccc(-c3cccc(NC(=O)c4ccc(C(C)(C)C)cc4)c3)cc2)CC1` [Compound 6e, 4-(tert-butyl)-N-(4′-((1-methylpiperidin-4-yl)oxy)-[1,1′-biphenyl]-3-yl)benzamide], the IC50 was determined as 1510 ± 310 nM in assay [1] (setting [3]), 1510 ± 310 nM in assay [1] (setting [13]), 3450 ± 20 nM in assay [2] (setting [5]) and 3450 ± 20 nM in assay [2] (setting [14]).
Regarding `COc1cccc(-c2cc(C(=O)Nc3ccc(-c4ccc(OC5CCN(C)CC5)c(Cl)c4)cc3)ccc2OC)c1` [Compound 29i, N-(3′-chloro-4′-((1-methylpiperidin-4-yl)oxy)-[1,1′-biphenyl]-4-yl)-3′,6-dimethoxy-[1,1′-biphenyl]-3-carboxamide], the results for the IC50 in assay [1] (setting [7]) and in assay [2] (setting [8]) were 1840 ± 570 nM and 1480 ± 120 nM, respectively.
Turning to `COc1ccc(C(=O)Nc2ccc(-c3ccc(OC4CCN(C)CC4)cc3)cc2)cc1-c1ccc(OC(C)=O)cc1` [Compound 49e, 2′-methoxy-5′-((4′-((1-methylpiperidin-4-yl)oxy)-[1,1′-biphenyl]-4-yl)carbamoyl)-[1,1′-biphenyl]-4-yl acetate], the IC50 was found to be 140 ± 10 nM in assay [1] (setting [9]) and 640 ± 80 nM in assay [2] (setting [10]).
